Assay results from patent US11021444B2, “Antiviral compounds” (priority 2013, dated 2021).
Read-outs that look alike come from different tables or passages of the source.

Assays:
[1] = Cytotoxicity Determination (CCK-8, without addition of virus); assay type: cell-based; settings: human, 50% cytotoxicity concentration (CC50)
In short: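 HEp-2 cells were seeded at 1,500 cells/well one day before compound addition. Compounds were tested without virus in duplicate over 7 points from 100 μM in 1/2 steps, with 1% final DMSO, 5 days at 37 °C, 5% CO2. Viability was read by CCK-8 after 3-4 hours.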

[2] = system: Respiratory Syncytial Virus (RSV) long strain; test: microbe, parasite or virus in culture; assay type: cell-based; settings: Tables A and B list compounds by EC50 band
In short: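 HEp-2 cells infected with 100 TCID50 virus per well, compounds in duplicate, 9-point 1/3 dilutions from 100 μM or 1 μM, 1% DMSO. After 5 days at 37 °C, cell viability (CPE protection) read by CCK-8 absorbance at 450 nm, 630 nm background.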

recombinant RSV complex = recombinant RSV complex (Human respiratory syncytial virus A, UniProt P28887); test: RSV Polymerase Inhibition Assay; assay type: biochemical
In short: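 10 nM recombinant RSV polymerase complex in Tris-HCl pH 7.5, 6 mM MgCl2 with RNA oligonucleotide template and radionucleotides, incubated 2 h at 30 °C with increasing inhibitor concentrations. Reaction stopped with EDTA; radiolabeled RNA product counted by scintillation.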

RSV replicon = test: microbe, parasite or virus in culture; assay type: cell-based; settings: read-out: EC50, the concentration of the drug required for reducing RSV replicon RNA by 50%
Protocol: The Renilla Luciferase Assay System (Promega, Cat. #E2820) was used to measure anti-RSV replicon activity. […] Luminescence was recorded using a Perkin Elmer multilabel counter Victor3V. EC50, the concentration of the drug required for reducing RSV replicon RNA by 50% in relation to the untreated cell control value, was calculated from the plot of percentage reductions of the optical density (OD) value against the drug concentrations using the Microsoft Excel forecast function.

[3] = human respiratory syncytial virus, HEp-2, 120 h, read-out: 50% effective concentration (EC50), HEp-2 cells infected with RSV long strain, 5 days, CCK-8 readout
[4] = human respiratory syncytial virus

Chain of recombinant RSV complex (P28887 whole entry): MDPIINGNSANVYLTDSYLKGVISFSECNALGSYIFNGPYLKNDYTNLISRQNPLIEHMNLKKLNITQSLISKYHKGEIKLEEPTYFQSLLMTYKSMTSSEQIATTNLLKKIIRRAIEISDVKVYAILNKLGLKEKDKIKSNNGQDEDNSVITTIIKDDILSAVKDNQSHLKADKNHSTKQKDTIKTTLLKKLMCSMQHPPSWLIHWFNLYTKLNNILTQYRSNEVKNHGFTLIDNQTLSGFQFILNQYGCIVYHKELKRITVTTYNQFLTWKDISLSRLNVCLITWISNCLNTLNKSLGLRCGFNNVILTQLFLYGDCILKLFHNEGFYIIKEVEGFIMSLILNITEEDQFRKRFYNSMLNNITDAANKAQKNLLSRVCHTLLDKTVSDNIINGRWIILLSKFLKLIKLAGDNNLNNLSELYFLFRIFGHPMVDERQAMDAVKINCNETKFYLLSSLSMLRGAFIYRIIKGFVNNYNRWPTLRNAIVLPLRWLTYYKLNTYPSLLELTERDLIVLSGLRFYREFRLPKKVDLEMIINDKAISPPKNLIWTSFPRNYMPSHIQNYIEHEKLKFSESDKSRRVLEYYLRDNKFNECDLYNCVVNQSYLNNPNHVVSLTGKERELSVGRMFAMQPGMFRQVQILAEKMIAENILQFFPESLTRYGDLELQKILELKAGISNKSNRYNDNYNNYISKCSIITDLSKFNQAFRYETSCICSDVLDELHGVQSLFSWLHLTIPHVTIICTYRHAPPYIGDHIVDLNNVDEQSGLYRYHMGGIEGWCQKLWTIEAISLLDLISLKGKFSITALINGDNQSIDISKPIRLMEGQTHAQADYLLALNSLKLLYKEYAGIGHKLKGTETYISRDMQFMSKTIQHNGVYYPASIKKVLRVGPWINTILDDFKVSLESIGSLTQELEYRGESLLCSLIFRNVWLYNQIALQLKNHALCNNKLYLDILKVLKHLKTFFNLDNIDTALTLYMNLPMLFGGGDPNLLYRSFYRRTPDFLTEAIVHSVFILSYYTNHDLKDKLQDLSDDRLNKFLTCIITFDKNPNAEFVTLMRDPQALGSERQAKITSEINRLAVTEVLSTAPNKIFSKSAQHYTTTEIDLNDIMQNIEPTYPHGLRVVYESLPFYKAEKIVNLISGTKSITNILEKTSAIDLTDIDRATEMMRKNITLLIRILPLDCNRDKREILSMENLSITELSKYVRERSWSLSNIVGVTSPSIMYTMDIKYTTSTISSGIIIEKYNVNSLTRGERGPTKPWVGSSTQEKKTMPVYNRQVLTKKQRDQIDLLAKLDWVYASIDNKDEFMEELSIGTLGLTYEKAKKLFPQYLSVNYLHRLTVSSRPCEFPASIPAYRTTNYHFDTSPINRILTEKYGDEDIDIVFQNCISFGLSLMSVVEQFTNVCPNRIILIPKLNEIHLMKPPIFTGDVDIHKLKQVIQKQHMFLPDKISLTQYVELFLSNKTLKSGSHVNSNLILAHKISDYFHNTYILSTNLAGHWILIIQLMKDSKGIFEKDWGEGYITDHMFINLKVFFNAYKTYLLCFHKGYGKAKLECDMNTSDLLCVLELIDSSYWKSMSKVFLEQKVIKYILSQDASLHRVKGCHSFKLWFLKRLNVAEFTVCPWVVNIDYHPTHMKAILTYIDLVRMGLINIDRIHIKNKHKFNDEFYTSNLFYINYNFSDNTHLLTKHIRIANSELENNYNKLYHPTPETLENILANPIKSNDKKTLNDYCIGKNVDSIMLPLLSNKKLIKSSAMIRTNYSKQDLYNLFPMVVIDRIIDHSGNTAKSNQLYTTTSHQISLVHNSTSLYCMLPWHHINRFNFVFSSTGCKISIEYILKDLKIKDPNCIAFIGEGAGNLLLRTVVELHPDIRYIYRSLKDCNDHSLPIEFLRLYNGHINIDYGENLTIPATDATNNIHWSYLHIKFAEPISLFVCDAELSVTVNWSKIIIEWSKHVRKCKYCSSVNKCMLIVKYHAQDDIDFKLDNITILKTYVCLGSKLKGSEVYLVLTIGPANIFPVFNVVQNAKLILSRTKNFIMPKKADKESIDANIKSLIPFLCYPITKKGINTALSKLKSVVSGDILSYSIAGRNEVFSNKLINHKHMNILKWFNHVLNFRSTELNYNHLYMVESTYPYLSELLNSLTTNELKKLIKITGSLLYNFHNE
Chain of recombinant RSV complex (P03421 whole entry, further chain): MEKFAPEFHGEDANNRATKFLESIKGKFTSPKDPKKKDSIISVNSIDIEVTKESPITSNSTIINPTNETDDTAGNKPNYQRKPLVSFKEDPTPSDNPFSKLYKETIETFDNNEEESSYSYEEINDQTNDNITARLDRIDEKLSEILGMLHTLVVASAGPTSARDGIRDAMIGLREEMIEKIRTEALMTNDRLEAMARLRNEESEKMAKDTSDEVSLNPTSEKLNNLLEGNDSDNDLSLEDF

Row | SMILES | CC50 at 5 days [1] [nM] | EC50 [2, 3] [nM] | IC50 (recombinant RSV complex) [nM] | EC50 (RSV replicon; [4]) [nM] | EC50 ([2]; human respiratory syncytial virus, 120 h, read-out: 50% effective concentration (EC50), HEp-2 cells infected with RSV long strain, 5 days, CCK-8 readout) [nM] | EC50 ([2]; read-out: 50% effective concentration (EC50), HEp-2 cells infected with RSV long strain, 5 days, CCK-8 readout) [nM] | IC50 (recombinant RSV complex; read-out: IC50 (compound concentration at which the enzyme-catalyzed rate was reduced by 50%), 10 nM recombinant RSV complex, 2 h at 30° C., Tables E, F and G list compounds by IC50 band) [nM] | EC50 (RSV replicon; RSV replicon, 395 HeLa or APC126 cells, value given by membership in Table H / Table I) [nM]
1 | CCOc1ccc(C(=O)NCC(C)(O)c2ccc(OC)c(-c3c[nH]c4c(F)cccc34)n2)cc1OC (racemic) [Compound 116] | 10000 to 100000 | < 1000 | < 1000 | < 1000 | – | – | – | –
2 | COc1cc(C(=O)NCC(C)(O)c2ccc(OC)c(-c3c[nH]c4c(F)cccc34)n2)ccc1OCCO (racemic) [Compound 117] | 10000 to 100000 | < 1000 | < 1000 | < 1000 | – | – | – | –
3 | COc1cc(C(=O)NCC(C)(O)c2ccc(OC)c(-c3ccc(F)c(Br)c3)n2)ccc1OCCF (racemic) [Compound 118] | 10000 to 100000 | < 1000 | < 1000 | < 1000 | – | – | – | –
4 | COc1cc(C(=O)NCC(O)(c2cc(C(C)(C)N)cc(-c3ccc(F)c(Cl)c3)n2)C(F)(F)F)ccc1OC1CC1 (single isomer, unassigned) [Compound 272] | – | < 1000 | < 1000 | < 1000 | – | – | – | –
5 | COc1ccc(C(=O)NCC(O)c2cccc(-c3csc4c(F)cccc34)n2)cc1OC (centres unmarked) [Compound 106] | 10000 to 100000 | – | – | < 1000 | 1000 to 50000 | – | – | –
6 | COc1cc(C(=O)NCC2(c3cccc(-c4csc5c(F)cccc45)n3)COC2)ccc1OCCO [Compound 163] | 10000 to 100000 | – | – | 1000 to 50000 | – | – | – | –
7 | COc1cc(C(=O)NCC(O)(Cn2cccn2)c2ccc(OC)c(-c3ccc(F)c(Cl)c3)n2)ccc1OCCO (centres unmarked) [Compound 184] | – | – | – | – | – | < 1000 | < 1000 | < 1000
8 | COc1cc(C(=O)NCC(O)(c2ccc(OC)c(-c3ccc(F)c(Cl)c3)n2)c2cnn(C)n2)ccc1OCCO (centres unmarked) [Compound 198] | – | < 1000 | < 1000 | < 1000 | – | – | – | –
9 | CC(C)(N)c1cc(-c2ccc(F)c(Cl)c2)nc(C(O)(CNC(=O)c2ccc3c(c2)OCCO3)C(F)(F)F)c1 (centres unmarked) [Compound 273] | – | < 1000 | < 1000 | < 1000 | – | – | – | –
10 | CC(C)(N)c1cc(-c2ccc(F)c(Cl)c2)nc(C(O)(CNC(=O)c2ccc3c(c2)OC(F)(F)O3)C(F)(F)F)c1 (centres unmarked) [Compound 275] | – | 1000 to 50000 | < 1000 | < 1000 | – | – | – | –
11 | CC(C)(N)c1cc(-c2ccc(F)c(Cl)c2)nc(C(O)(CNC(=O)c2ccc(OC3CCNC3=O)c(Cl)c2)C(F)(F)F)c1 (centres unmarked) [Compound 281] | – | < 1000 | < 1000 | < 1000 | – | – | – | –
12 | CC(C)(N)c1cc(-c2ccc(F)c(Cl)c2)nc(C(O)(CNC(=O)c2ccc(OC3CC3)c(Cl)c2)C(F)(F)F)c1 (centres unmarked) [Compound 282] | – | < 1000 | < 1000 | < 1000 | – | – | – | –
13 | COc1cc(C(=O)NCC(O)(c2cc(C(C)(C)N)cc(-c3ccc(F)c(Cl)c3)n2)C(F)(F)F)ccc1OC1CC1 (centres unmarked) [Compound 314] | – | < 1000 | < 1000 | < 1000 | – | – | – | –
14 | COc1cc(C(=O)NCC(O)(c2cc(C(C)(C)N)cc(-c3ccc(F)c(Cl)c3)n2)C(F)(F)F)ccc1OC1CC(F)C1 (centres unmarked) [Compound 323] | – | < 1000 | < 1000 | < 1000 | – | – | – | –
15 | COc1cc(C(=O)NCC(O)(c2cc(C(C)(C)N)cc(-c3ccc(F)c(Cl)c3)n2)C(F)(F)F)ccc1OC1CC1(F)F (centres unmarked) [Compound 324] | – | < 1000 | < 1000 | < 1000 | – | – | – | –
16 | COc1cc(C(=O)NCC(O)(c2cc(C(C)(C)N)cc(-c3ccc(F)c(Cl)c3)n2)C(F)(F)F)ccc1OCC(F)(F)F (centres unmarked) [Compound 325] | – | < 1000 | < 1000 | < 1000 | – | – | – | –
17 | COc1cc(C(=O)NCC(O)(c2ccc(OC)c(-c3ccc(F)c(Cl)c3)n2)C(F)(F)F)ccc1OC[C@@H](C)O (some centres unmarked) [Compound 336] | 10000 to 100000 | < 1000 | – | < 1000 | – | – | – | –
18 | COc1cc(C(=O)NCC(O)(c2ccc(OC)c(-c3ccc(F)c(Cl)c3)n2)C(F)(F)F)ccc1OC(C)C(N)=O (centres unmarked) [Compound 338] | 10000 to 100000 | < 1000 | – | < 1000 | – | – | – | –
19 | COc1ccc(C(O)(CNC(=O)c2cc(OC)c3ncccc3c2)C(F)(F)F)nc1-c1ccc(F)c(Cl)c1 (centres unmarked) [Compound 339] | 10000 to 100000 | < 1000 | – | < 1000 | – | – | – | –
20 | COc1cc(C(=O)NCC(O)(c2cc3c(c(-c4ccc(F)c(Cl)c4)n2)OCCC3(C)C)C(F)(F)F)ccc1OC1CC1 (centres unmarked) [Compound 345] | > 100000 | < 1000 | – | < 1000 | – | – | – | –
